Reference: ChEMBL document CHEMBL3612015, “Coumarins as anticancer agents: a review on synthetic strategies, mechanism of action and SAR studies” (Eur J Med Chem, 2015)
pIC50: −log10 of the molar value.

Assays:
MCF7 [1] = assay: Cytotoxicity against human MCF7 cells after 48 hrs by MTT assay; assay type: functional, cell-based; conditions: MCF7, 48 h
MCF7 [2] = assay: Cytotoxicity against human MCF7 cells after 48 hrs by trypan blue assay; assay type: functional, cell-based; conditions: MCF7, 48 h
MCF7 [3] = assay: Cytotoxicity against human MCF7 cells assessed as growth inhibition at 200 uM after 48 hrs by MTT assay relative to control; assay type: functional; conditions: MCF7, 48 h, read-out: GI
MCF7 [4] = assay: Cytotoxicity against human MCF7 cells assessed as growth inhibition at 50 uM after 48 hrs by MTT assay relative to control; assay type: functional; conditions: MCF7, 48 h, read-out: GI
MCF7 [5] = assay: Cytotoxicity against human MCF7 cells assessed as growth inhibition at 100 uM after 48 hrs by MTT assay relative to control; assay type: functional; conditions: MCF7, 48 h, read-out: GI
MCF7 [6] = assay: Cytotoxicity against human MCF7 cells assessed as growth inhibition at 10 uM after 48 hrs by MTT assay relative to control; assay type: functional; conditions: MCF7, 48 h, read-out: GI
A549 = assay: Cytotoxicity against human A549 cells after 48 hrs by crystal violet dye-binding assay; assay type: functional; conditions: A549, 48 h, read-out: LD50 (the source's name)
[7] = Cytotoxicity against rat CRL1548 cells after 48 hrs by crystal violet dye-binding assay; assay type: functional; conditions: CRL1548, 48 h, read-out: LD50 (the source's name)
[8] = Cytotoxicity against rat CRL1439 cells after 48 hrs by crystal violet dye-binding assay; assay type: cell-based; conditions: read-out: LD50
[9] = Cytotoxicity against human NCI60 cells assessed as cell growth after 48 hrs by SRB assay; assay type: functional
UO-31 = assay: Cytotoxicity against human UO31 cells assessed as cell growth after 48 hrs by SRB assay relative to control; assay type: functional
NCI-H522 = assay: Cytotoxicity against human NCI-H522 cells assessed as cell growth after 48 hrs by SRB assay relative to control; assay type: functional
MDA-MB-231 = assay: Cytotoxicity against human MDA-MB-231 cells assessed as cell growth after 48 hrs by SRB assay relative to control; assay type: functional
CAKI-1 = assay: Cytotoxicity against human CAKI-1 cells assessed as cell growth after 48 hrs by SRB assay relative to control; assay type: functional
MDA-MB-468 = assay: Cytotoxicity against human MDA-MB-468 cells assessed as cell proliferation after 72 hrs by CellTiter 96 aqueous one solution cell proliferation assay relative to control; assay type: functional
MCF7 [10] = assay: Cytotoxicity against human MCF7 cells assessed as cell proliferation after 72 hrs by CellTiter 96 aqueous one solution cell proliferation assay relative to control; assay type: functional
SK-OV-3 = assay: Cytotoxicity against human SKOV3 cells assessed as cell proliferation after 72 hrs by CellTiter 96 aqueous one solution cell proliferation assay relative to control; assay type: functional
HeLa [11] = assay: Cytotoxicity against human HeLa cells assessed as growth inhibition after 72 hrs by MTT assay; assay type: functional, cell-based
U-937 [12] = assay: Antiproliferative activity against human U937 cells after 3 days; assay type: functional, cell-based; conditions: U-937, 72 h
U-937 [13] = assay: Cytotoxicity against human U937 cells assessed as decrease in cell viability after 48 hrs; assay type: functional; conditions: U-937, 48 h
HepG2 = assay: Cytotoxicity against human HepG2 cells assessed as growth inhibition after 72 hrs by MTT assay; assay type: functional, cell-based; conditions: HepG2, 72 h
SW-620 = assay: Cytotoxicity against human SW620 cells assessed as growth inhibition after 72 hrs by MTT assay; assay type: functional, cell-based; conditions: SW-620, 72 h
[14] = target: Proto-oncogene tyrosine-protein kinase Src (Homo sapiens, UniProt P12931); assay: Inhibition of His6-tagged Src kinase domain (unknown origin) using AEEEIYGEFEAKKKK as substrate preincubated for 10 mins followed by substrate/ATP addition measured after 30 mins by fluorescence assay
Proto-oncogene tyrosine-protein kinase Src, sequence (P12931 2-536 limits assumed): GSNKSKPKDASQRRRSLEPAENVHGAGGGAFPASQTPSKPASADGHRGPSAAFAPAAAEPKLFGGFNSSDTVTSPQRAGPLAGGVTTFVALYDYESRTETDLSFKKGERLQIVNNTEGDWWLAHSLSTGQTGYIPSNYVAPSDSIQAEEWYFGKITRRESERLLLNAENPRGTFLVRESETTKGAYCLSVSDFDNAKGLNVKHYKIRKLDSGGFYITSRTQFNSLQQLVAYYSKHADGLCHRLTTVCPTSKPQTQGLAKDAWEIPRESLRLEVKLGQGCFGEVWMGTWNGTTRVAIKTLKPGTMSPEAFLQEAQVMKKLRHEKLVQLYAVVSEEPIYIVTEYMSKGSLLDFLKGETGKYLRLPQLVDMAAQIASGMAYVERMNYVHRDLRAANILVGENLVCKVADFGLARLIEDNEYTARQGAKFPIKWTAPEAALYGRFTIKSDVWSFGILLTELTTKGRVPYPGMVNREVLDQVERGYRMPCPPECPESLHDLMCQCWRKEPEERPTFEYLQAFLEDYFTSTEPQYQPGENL

MCF7 [15] = assay: Cytotoxicity against human MCF7 cells after 72 hrs by MTT assay; assay type: functional, cell-based; conditions: MCF7, 72 h
A2780 = assay: Cytotoxicity against human A2780 cells after 72 hrs by MTT assay; assay type: functional, cell-based; conditions: A2780, 72 h
HeLa [16] = assay: Cytotoxicity against human HeLa cells after 72 hrs by MTT assay; assay type: functional, cell-based
KETR3 = assay: Cytotoxicity against human Ketr3 cells after 72 hrs by MTT assay; assay type: functional, cell-based; conditions: KETR3, 72 h
Vero = assay: Cytotoxicity against African green monkey Vero cells; assay type: cell-based; conditions: Chlorocebus sabaeus
[17] = Cytotoxicity against human Hep2 cells; assay type: functional, cell-based; conditions: HEp-2
Paracentrotus lividus [18] = assay: Antimitotic activity in sea urchin embryo assessed as cleavage arrest; assay type: functional
[19] = Cytotoxicity against human NCI60 cells assessed as cell growth; assay type: functional
Paracentrotus lividus [20] = assay: Antimitotic activity in sea urchin embryo assessed as embryo spinning; assay type: functional
Paracentrotus lividus [21] = assay: Antimitotic activity in sea urchin embryo assessed as cleavage alterations; assay type: functional

Cc1cc(C(=O)c2ccc(Cl)cc2Cl)ccc1OCC(=O)NNC(=O)c1cc2ccccc2oc1=O
pIC50 (MCF7 [1]): 4.99
pIC50 (MCF7 [2]): 4.98

C=CCOc1cc2oc(=O)cc(-c3nc4ccccc4s3)c2cc1OCC=C
inhibition of growth at 200 µM (MCF7 [3]): 70.3%
inhibition of growth at 50 µM (MCF7 [4]): 25.3%
inhibition of growth at 100 µM (MCF7 [5]): 43.8%
inhibition of growth at 10 µM (MCF7 [6]): 18.5%

CCN(CC)c1ccc2c(C)c(-c3ccc(OC(C)=O)cc3)c(=O)oc2c1
CC50 (A549): 48.1 µM
CC50 [7]: 45.1 µM
CC50 at 48 h [8]: 49.1 µM

O=c1oc2ccccc2cc1C1=NN(c2ccccc2)C(c2ccc(O)cc2)C1 (stereo unspecified)
Activity [9]: 77.59%
Activity (UO-31): -63.77%
Activity (NCI-H522): -67.37%
Activity (MDA-MB-231): -67.37%
Activity (CAKI-1): -65.18%

CCCCCCCCCCc1c(C)c2cc3c(c(O)c2oc1=O)OC(C)(C)CC3
Activity (MDA-MB-468): 36%
Activity (MCF7 [10]): 57%
Activity (SK-OV-3): 35%

COc1ccc2c(Cn3cnc(C(N)=O)n3)cc(=O)oc2c1
pIC50 (HeLa [11]): 4.45

O=c1ccc2ccc(O)c(O)c2o1 [DAPHNETIN]
pIC50 (U-937 [12]): 4.08
CC50 (U-937 [13]): 120 µM

Nc1nc(Cl)c2cnn(Cc3cc(=O)oc4cc(O)ccc34)c2n1
pIC50 (HepG2): 4.59
pIC50 (SW-620): 4.45
pIC50 (HeLa [11]): 4.47

CCCCCCCCCCc1c(C)c2ccc(N(CC)CCCC(=O)O)cc2oc1=O
pIC50 [14]: 4.67

Cc1ccc(C(=O)c2cc(F)c(OCC(=O)NNC(=O)c3cc4ccccc4oc3=O)c(Cl)c2)cc1
pIC50 (MCF7 [1]): 5.03
pIC50 (MCF7 [2]): 5.03

CCCCCCCCCCc1c(C)c2ccc(N)cc2oc1=O
pIC50 [14]: 4.13

CO[C@@H]1[C@@H](N)[C@@H](O)[C@H](Oc2ccc3cc(NC(=O)c4ccccc4)c(=O)oc3c2Cl)OC1(C)C
pIC50 (MCF7 [15]): 4.86
pIC50 (A2780): 5.55
pIC50 (HeLa [16]): 5.27
pIC50 (KETR3): 4.84

CO[C@@H]1[C@@H](N)[C@@H](O)[C@H](Oc2ccc3cc(NC(=O)c4ccccc4)c(=O)oc3c2C)OC1(C)C
pIC50 (MCF7 [15]): 5.09
pIC50 (A2780): 5.12
pIC50 (HeLa [16]): 5.54
pIC50 (KETR3): 5.67

COc1ccccc1NCOc1ccc2oc(=O)cc(C)c2c1
pIC50 (Vero): 4.67
pIC50 [17]: 5.27

Cc1cc(C(=O)c2ccccc2Br)ccc1OCC(=O)NNC(=O)c1cc2ccccc2oc1=O
pIC50 (MCF7 [1]): 5.12
pIC50 (MCF7 [2]): 5.11

CCc1c(C)c2cc3c(c(O)c2oc1=O)OC(C)(C)CC3
Activity (MDA-MB-468): 85%
Activity (MCF7 [10]): 45%
Activity (SK-OV-3): 30%

COc1ccc(-c2cc3cc(OC)c(OC)c(OC)c3oc2=O)cc1
EC (Paracentrotus lividus [18]): 4 µM
GI50 [19]: 3.98 µM
EC (Paracentrotus lividus [20]): >5 µM
EC (Paracentrotus lividus [21]): 0.2 µM

CC(=O)Oc1ccc(-c2c(-c3ccccc3)c3ccccc3oc2=O)cc1
CC50 (A549): 89.3 µM
CC50 [7]: > 100 µM
CC50 at 48 h [8]: > 100 µM

Nc1ccc2c(C(F)(F)F)cc(=O)oc2c1
pIC50 [14]: 4.51

Cc1cc(=O)oc2cc(O)c(O)cc12 [4-METHYLESCULETIN]
CC50 (U-937 [13]): 76 µM

Cc1cc(=O)oc2ccc(OCNc3ccccc3O)cc12
pIC50 (Vero): 4.64
pIC50 [17]: 5.38

CCCCCCc1c(C)c2ccc(N(CC)CCCC(=O)O)cc2oc1=O
pIC50 [14]: 4.44

Cc1cc(=O)oc2ccc(OCNc3ccc(F)cc3)cc12
pIC50 (Vero): 4.51
pIC50 [17]: 5.44
